{
  "source": "PubChem BioAssay AID2060885",
  "about": "(Molecular Pharmacology Branch, DTP, NCI, 2025)",
  "system": "NCI-H23 complex spheroids with HUVEC/MSC, viability",
  "experiment": "Anticancer human tumor NCI-H23 cell line growth inhibition [RAS];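 also: spheroids exposed to compound for 7 days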;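 as to viability, T/C: 100% = DMSO vehicle control viability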",
  "conditions": "for IC50: curve of first compound; for viability, T/C: stronger effect = lower value",
  "description": "RAS pathway inhibitors in Combinations in Complex Spheroids\nA high-throughput screen of multi-cell type tumor spheroids was designed to identify active combinations of RAS pathway inhibitors and targeted small molecules. Complex spheroids include a stromal component modeled by human endothelial cells (HUVEC) and fibroblasts modeled by human mesenchymal stem cells (MSCs). The concentration ranges selected for each drug and investigational agent were based upon clinically achievable concentrations if the clinical Cmax of the agent was known.\nCompounds. The drugs and investigational agents: abemaciclib (NSC768073), cobimetinib (NSC768068), divarasib (GDC6063, NSC841802), docetaxel (NSC628503), GDC-1971 (RLY-1971, NSC841576), gemcitabine (NSC613327), inavolisib (NSC800729), ipatasertib (NSC767898), KB-0742 (NSC834161), MRTX-1133 (NSC836407), osimertinib (NSC779217), RMC-4630 (NSC839698), RMC-6236 (NSC851965), RMC-6291 (NSC852671), Ro-3306 (NSC812927), sapanisertib (NSC764658), SN-38 (NSC673596), staurosporine (NSC755774), SY5609 (NSC837396), and tovorafenib (DAY101, NSC766906), were obtained from the National Cancer Institute (NCI) Developmental Therapeutics Program Chemical Repository. The FDA-approved anticancer drug set is available from the NCI Developmental Therapeutics Program. […] The stock solutions were prepared in dimethyl sulfoxide (DMSO, Sigma-Aldrich, St. Louis, MO, cat. D2650) at 800-fold the tested concentration and stored at -70 degrees C prior to their use. All drugs and investigational agents were tested over a range starting from a high concentration at or near the clinical Cmax and decreasing in half-log increments. If the clinical Cmax for an agent had not been determined, the highest concentration tested was 10 microM.\nCell Culture. All cells were maintained in an incubator at 37 degrees C and 5% CO2 with 95% humidity. The PDC lines were cultured according to standard operating procedures established by the NCI PDMR. All PDCs were thawed and cultured in Matrigel-coated flasks prepared with a working solution of 1X Ham's F-12 nutrient mix, without supplementation (Invitrogen, Waltham, MA, cat. 11765054), 100 U/mL penicillin-streptomycin (Invitrogen, cat. 15140122), and 2.5% Matrigel (Corning Inc., Corning, NY, cat. 354248) for the first three passages. The 362531-283-R-J2-PDC and 782815-120-R-J1-PDC lines were cultured in 6C/Colon 1B media, which includes advanced DMEM/F-12 (Thermo Fisher Scientific, cat. 12634028), 10 mM HEPES (Thermo Fisher Scientific, cat. 15630080), 1X GlutaMAX supplement (Thermo Fisher Scientific, cat. 35050061), 0.1 mg/mL primocin (InvivoGen, San Diego, CA, cat. ant-pm-2), 10% defined fetal bovine serum, heat inactivated (HyClone Laboratories Inc., Logan, UT, cat. SH30070.03HI), 50% L-WRN conditioned media (ATCC, cat. CRL-3276), 1.25 mM N-Acetyl-L-cysteine (Sigma-Aldrich, cat. A9165), 10 mM nicotinamide (Sigma-Aldrich, cat. N0636), 1X B-27 supplement (Thermo Fisher Scientific, cat. 17504044), 1X N-2 supplement (Thermo Fisher Scientific, cat. 17502048), 50 ng/mL human EGF (Thermo Fisher Scientific, cat. PHG0311), and 10 microM Y-27632 dihydrochloride (Tocris Bioscience, cat. 1254). The K12877-001-R-J1-PDC line was cultured in 6I media, which includes all 6C/Colon 1B media plus 10 ng/mL human FGF-10 (PeproTech, cat. 100-26), 1 ng/mL human FGF-2 (PeproTech, cat. 100-18B), 1 µM prostaglandin E2 (Tocris Bioscience, cat. 2296), […] hydrocortisone (Sigma-Aldrich, cat. H4001), and […] bovine insulin (Sigma-Aldrich, cat. I6634). The K86415-001-R-J1-PDC line was cultured in 6D media, which includes all 6C/Colon 1B media components minus the L-WRN conditioned media. The 485176-168-R4-J1-PDC was cultured in PANC media, which includes all 6C/Colon 1B media plus 100 ng/mL human FGF-10 (PeproTech, cat. 100-26), 500 nM SB-431542 (Selleckchem, cat. S1067), and 10 nM gastrin (Tocris Bioscience, cat. 3006). […]",
  "data": [
    {"smiles": "C[C@@H](NC(=O)c1ncnc(N)c1Cl)c1ncc(C(=O)Nc2cc(C(F)(F)F)c(Cl)cn2)s1", "note": "+ C#Cc1c(F)ccc2cc(O)cc(-c3ncc4c(N5CC6CCC(C5)N6)nc(OCC56CCCN5CC(F)C6)nc4c3F)c12", "values": [
      {"measurement": "IC50", "setting": "second compound 0.0316 µM", "result": "> 10", "unit": "µM"},
      {"measurement": "IC50", "setting": "second compound 0.1 µM", "result": "> 10", "unit": "µM"},
      {"measurement": "IC50", "setting": "second compound 0.316 µM", "result": "> 10", "unit": "µM"},
      {"measurement": "IC50", "setting": "second compound 1 µM", "result": "> 10", "unit": "µM"},
      {"measurement": "IC50", "setting": "second compound 3.16 µM", "result": "> 10", "unit": "µM"},
      {"measurement": "IC50", "setting": "second compound 10 µM", "result": "< 0.0316", "unit": "µM"},
      {"measurement": "viability, T/C", "setting": "second compound 0.0316 µM, first compound 0.0316 µM", "result": 110, "unit": "%"},
      {"measurement": "viability, T/C", "setting": "second compound 0.0316 µM, first compound 0.1 µM", "result": 112, "unit": "%"},
      {"measurement": "viability, T/C", "setting": "second compound 0.0316 µM, first compound 0.316 µM", "result": 98.9, "unit": "%"},
      {"measurement": "viability, T/C", "setting": "second compound 0.0316 µM, first compound 1 µM", "result": 99.9, "unit": "%"},
      {"measurement": "viability, T/C", "setting": "second compound 0.0316 µM, first compound 3.16 µM", "result": 92.3, "unit": "%"},
      {"measurement": "viability, T/C", "setting": "second compound 0.0316 µM, first compound 10 µM", "result": 66.5, "unit": "%"},
      {"measurement": "viability, T/C", "setting": "second compound 0.1 µM, first compound 0.0316 µM", "result": 103, "unit": "%"},
      {"measurement": "viability, T/C", "setting": "second compound 0.1 µM, first compound 0.1 µM", "result": 110, "unit": "%"},
      {"measurement": "viability, T/C", "setting": "second compound 0.1 µM, first compound 0.316 µM", "result": 105, "unit": "%"},
      {"measurement": "viability, T/C", "setting": "second compound 0.1 µM, first compound 1 µM", "result": 99.5, "unit": "%"},
      {"measurement": "viability, T/C", "setting": "second compound 0.1 µM, first compound 3.16 µM", "result": 91.8, "unit": "%"},
      {"measurement": "viability, T/C", "setting": "second compound 0.1 µM, first compound 10 µM", "result": 66.2, "unit": "%"},
      {"measurement": "viability, T/C", "setting": "second compound 0.316 µM, first compound 0.0316 µM", "result": 104, "unit": "%"},
      {"measurement": "viability, T/C", "setting": "second compound 0.316 µM, first compound 0.1 µM", "result": 110, "unit": "%"},
      {"measurement": "viability, T/C", "setting": "second compound 0.316 µM, first compound 0.316 µM", "result": 106, "unit": "%"},
      {"measurement": "viability, T/C", "setting": "second compound 0.316 µM, first compound 1 µM", "result": 99.4, "unit": "%"},
      {"measurement": "viability, T/C", "setting": "second compound 0.316 µM, first compound 3.16 µM", "result": 85.6, "unit": "%"},
      {"measurement": "viability, T/C", "setting": "second compound 0.316 µM, first compound 10 µM", "result": 74.4, "unit": "%"},
      {"measurement": "viability, T/C", "setting": "second compound 1 µM, first compound 0.0316 µM", "result": 90.3, "unit": "%"},
      {"measurement": "viability, T/C", "setting": "second compound 1 µM, first compound 0.1 µM", "result": 96.2, "unit": "%"},
      {"measurement": "viability, T/C", "setting": "second compound 1 µM, first compound 0.316 µM", "result": 93.1, "unit": "%"},
      {"measurement": "viability, T/C", "setting": "second compound 1 µM, first compound 1 µM", "result": 86.1, "unit": "%"},
      {"measurement": "viability, T/C", "setting": "second compound 1 µM, first compound 3.16 µM", "result": 83.3, "unit": "%"},
      {"measurement": "viability, T/C", "setting": "second compound 1 µM, first compound 10 µM", "result": 60.7, "unit": "%"},
      {"measurement": "viability, T/C", "setting": "second compound 3.16 µM, first compound 0.0316 µM", "result": 67.2, "unit": "%"},
      {"measurement": "viability, T/C", "setting": "second compound 3.16 µM, first compound 0.1 µM", "result": 69.3, "unit": "%"},
      {"measurement": "viability, T/C", "setting": "second compound 3.16 µM, first compound 0.316 µM", "result": 60.8, "unit": "%"},
      {"measurement": "viability, T/C", "setting": "second compound 3.16 µM, first compound 1 µM", "result": 56.9, "unit": "%"},
      {"measurement": "viability, T/C", "setting": "second compound 3.16 µM, first compound 3.16 µM", "result": 53.6, "unit": "%"},
      {"measurement": "viability, T/C", "setting": "second compound 3.16 µM, first compound 10 µM", "result": 52.5, "unit": "%"},
      {"measurement": "viability, T/C", "setting": "second compound 10 µM, first compound 0.0316 µM", "result": 38.7, "unit": "%"},
      {"measurement": "viability, T/C", "setting": "second compound 10 µM, first compound 0.1 µM", "result": 49.5, "unit": "%"},
      {"measurement": "viability, T/C", "setting": "second compound 10 µM, first compound 0.316 µM", "result": 46.3, "unit": "%"},
      {"measurement": "viability, T/C", "setting": "second compound 10 µM, first compound 1 µM", "result": 41.1, "unit": "%"},
      {"measurement": "viability, T/C", "setting": "second compound 10 µM, first compound 3.16 µM", "result": 48.1, "unit": "%"},
      {"measurement": "viability, T/C", "setting": "second compound 10 µM, first compound 10 µM", "result": 38.3, "unit": "%"}
    ]}
  ]
}
